For one test, the target named is ABL2/ARG (Homo sapiens, UniProt P42684). Conditions: 1 μM; Run 1, Run 2.
Another test concerns the target CAMK1a (Homo sapiens, UniProt Q14012). The note with it: 1 μM; Run 1, Run 2.
A further test concerns the target CDK1/cyclin A (Homo sapiens, UniProt P06493). Conditions: 1 μM; Run 1, Run 2.
The target in a further test is ERK5/MAPK7 (Homo sapiens, UniProt Q13164). Conditions: 1 μM; Run 1, Run 2.
A further test addresses FRK/PTK5 (Homo sapiens, UniProt P42685). The note with it: 1 μM; Run 1, Run 2.
For a further test, the target named is T1, MEK3 (Homo sapiens, UniProt P46734).
T1 sequence (P46734 1-347): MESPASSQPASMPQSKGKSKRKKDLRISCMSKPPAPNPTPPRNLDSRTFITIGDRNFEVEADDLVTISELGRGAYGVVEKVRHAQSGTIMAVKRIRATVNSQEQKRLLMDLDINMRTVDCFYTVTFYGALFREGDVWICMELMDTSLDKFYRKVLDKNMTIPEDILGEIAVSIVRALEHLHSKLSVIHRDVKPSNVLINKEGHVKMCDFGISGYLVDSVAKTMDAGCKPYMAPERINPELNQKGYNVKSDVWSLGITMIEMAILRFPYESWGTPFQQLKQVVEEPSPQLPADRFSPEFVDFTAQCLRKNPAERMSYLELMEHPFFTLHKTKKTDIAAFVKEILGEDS
Conditions: 1 μM; Run 1, Run 2.

The target in another test is T2, MEK5 (Homo sapiens, UniProt Q13163).
T2 sequence (Q13163 1-448): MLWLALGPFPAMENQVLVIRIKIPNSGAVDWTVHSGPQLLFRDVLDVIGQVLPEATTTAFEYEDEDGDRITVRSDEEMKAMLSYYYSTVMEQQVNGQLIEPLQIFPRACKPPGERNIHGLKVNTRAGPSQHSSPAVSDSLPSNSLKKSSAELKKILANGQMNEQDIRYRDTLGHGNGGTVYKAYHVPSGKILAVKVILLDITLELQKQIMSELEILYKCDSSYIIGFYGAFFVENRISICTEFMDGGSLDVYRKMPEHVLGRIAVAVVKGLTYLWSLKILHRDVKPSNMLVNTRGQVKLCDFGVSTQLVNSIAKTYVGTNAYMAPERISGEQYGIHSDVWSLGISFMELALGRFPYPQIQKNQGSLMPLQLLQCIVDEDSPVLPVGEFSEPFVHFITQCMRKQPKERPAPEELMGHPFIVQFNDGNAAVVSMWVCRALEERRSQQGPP
The note with it: 1 μM; Run 1, Run 2.

In another test the target is T3, PRKX (Homo sapiens, UniProt P51817).
T3 sequence (P51817 1-358): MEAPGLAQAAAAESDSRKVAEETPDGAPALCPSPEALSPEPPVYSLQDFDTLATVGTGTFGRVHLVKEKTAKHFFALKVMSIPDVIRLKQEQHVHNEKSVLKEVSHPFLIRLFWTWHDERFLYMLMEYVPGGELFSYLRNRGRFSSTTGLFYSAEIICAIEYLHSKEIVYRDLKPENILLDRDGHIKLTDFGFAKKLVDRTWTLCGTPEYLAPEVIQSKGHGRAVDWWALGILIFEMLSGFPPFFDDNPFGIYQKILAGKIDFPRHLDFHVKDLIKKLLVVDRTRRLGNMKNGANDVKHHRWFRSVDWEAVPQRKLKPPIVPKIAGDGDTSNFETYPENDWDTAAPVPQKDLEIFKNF
Conditions: 1 μM; Run 1, Run 2.

The target in a further test is STK32B/YANK2 (Homo sapiens, UniProt Q9NY57). The note with it: 1 μM; Run 1, Run 2.
The next test addresses BRK (Homo sapiens, UniProt Q13882). The experiment in a line: biochemical. The note with it: read-out: % enzyme activity, 1 μM; Run 1, Run 2.
The next test addresses CK1epsilon (Homo sapiens, UniProt P49674). As to the kind of experiment: biochemical. The note with it: read-out: % enzyme activity, 1 μM; Run 1, Run 2.
Another test concerns the target ERN2/IRE2 (Homo sapiens, UniProt Q76MJ5). As to the kind of experiment: biochemical. Conditions: read-out: % enzyme activity, 1 μM; Run 1, Run 2.
Another test deals with HCK (Homo sapiens, UniProt P08631). As to the kind of experiment: biochemical. Conditions: read-out: % enzyme activity, 1 μM; Run 1, Run 2.
A further test has as its target NIM1 (Homo sapiens, UniProt Q8IY84). As to the kind of experiment: biochemical. The note with it: read-out: % enzyme activity, 1 μM; Run 1, Run 2.
The next test addresses T4, ULK2 (Homo sapiens, UniProt Q8IYT8).
T4 sequence (Q8IYT8 1-1036): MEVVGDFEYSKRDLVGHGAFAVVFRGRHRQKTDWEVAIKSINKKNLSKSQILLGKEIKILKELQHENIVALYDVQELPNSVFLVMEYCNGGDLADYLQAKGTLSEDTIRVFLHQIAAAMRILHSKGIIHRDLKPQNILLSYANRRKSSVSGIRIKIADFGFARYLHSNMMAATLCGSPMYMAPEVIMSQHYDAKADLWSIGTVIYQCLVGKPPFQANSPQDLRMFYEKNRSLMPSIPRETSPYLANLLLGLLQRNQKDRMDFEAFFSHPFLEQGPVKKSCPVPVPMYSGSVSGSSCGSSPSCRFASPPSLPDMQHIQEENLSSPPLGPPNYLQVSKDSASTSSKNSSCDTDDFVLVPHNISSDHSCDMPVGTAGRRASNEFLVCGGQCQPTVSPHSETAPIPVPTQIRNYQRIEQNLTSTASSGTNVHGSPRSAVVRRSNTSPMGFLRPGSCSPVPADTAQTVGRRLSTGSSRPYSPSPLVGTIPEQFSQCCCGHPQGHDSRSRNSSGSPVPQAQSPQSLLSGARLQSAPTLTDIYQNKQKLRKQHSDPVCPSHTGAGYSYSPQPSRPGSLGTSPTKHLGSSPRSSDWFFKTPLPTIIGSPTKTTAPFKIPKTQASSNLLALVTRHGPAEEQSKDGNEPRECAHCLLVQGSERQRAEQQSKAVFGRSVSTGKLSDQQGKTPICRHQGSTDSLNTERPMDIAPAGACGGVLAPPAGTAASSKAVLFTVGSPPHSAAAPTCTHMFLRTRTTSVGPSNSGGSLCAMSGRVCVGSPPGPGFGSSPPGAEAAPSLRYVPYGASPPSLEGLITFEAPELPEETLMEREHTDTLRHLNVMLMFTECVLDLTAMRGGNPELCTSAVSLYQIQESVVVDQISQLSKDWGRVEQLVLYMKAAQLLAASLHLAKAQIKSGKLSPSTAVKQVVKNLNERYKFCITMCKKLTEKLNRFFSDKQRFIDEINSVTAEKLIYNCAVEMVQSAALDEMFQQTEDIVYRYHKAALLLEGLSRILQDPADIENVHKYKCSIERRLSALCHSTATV
As to the kind of experiment: biochemical. Conditions: read-out: % enzyme activity, 1 μM; Run 1, Run 2.

Chain of STK32B/YANK2 (Q9NY57 whole entry): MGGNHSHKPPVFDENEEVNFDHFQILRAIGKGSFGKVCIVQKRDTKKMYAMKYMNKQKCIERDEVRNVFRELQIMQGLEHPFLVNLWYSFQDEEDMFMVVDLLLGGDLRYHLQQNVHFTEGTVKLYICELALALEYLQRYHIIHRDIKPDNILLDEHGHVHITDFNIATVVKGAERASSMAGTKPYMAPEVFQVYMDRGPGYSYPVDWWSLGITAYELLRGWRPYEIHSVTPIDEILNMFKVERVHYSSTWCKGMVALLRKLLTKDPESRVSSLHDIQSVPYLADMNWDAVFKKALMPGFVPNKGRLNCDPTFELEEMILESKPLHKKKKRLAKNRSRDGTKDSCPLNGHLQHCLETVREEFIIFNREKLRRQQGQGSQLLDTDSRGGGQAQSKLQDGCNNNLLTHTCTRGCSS
Chain of FRK/PTK5 (P42685 whole entry): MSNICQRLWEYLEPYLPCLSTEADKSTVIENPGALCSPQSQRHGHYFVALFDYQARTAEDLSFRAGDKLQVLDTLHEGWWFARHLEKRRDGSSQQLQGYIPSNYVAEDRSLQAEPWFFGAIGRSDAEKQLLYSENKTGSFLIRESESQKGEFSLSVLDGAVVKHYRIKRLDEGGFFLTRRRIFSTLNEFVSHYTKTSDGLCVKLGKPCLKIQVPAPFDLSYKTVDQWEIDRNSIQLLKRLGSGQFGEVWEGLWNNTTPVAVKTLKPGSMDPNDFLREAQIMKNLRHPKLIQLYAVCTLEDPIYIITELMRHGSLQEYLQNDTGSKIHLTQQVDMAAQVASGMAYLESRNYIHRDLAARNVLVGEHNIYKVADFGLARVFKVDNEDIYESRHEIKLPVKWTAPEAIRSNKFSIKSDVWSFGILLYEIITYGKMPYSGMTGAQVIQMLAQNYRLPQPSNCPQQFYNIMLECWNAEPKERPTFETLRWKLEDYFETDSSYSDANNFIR
Chain of CK1epsilon (P49674 whole entry): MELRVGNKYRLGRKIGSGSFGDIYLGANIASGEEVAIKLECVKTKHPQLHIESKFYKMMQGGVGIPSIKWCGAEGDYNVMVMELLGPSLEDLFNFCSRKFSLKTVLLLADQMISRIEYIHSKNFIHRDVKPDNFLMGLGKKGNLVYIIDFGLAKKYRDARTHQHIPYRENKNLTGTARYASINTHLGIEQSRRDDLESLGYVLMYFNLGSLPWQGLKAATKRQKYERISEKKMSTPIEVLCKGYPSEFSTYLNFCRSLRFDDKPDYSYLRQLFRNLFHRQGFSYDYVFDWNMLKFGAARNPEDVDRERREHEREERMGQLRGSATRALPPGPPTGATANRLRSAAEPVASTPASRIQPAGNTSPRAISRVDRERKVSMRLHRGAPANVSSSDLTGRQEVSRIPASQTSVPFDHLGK
Chain of ABL2/ARG (P42684 whole entry): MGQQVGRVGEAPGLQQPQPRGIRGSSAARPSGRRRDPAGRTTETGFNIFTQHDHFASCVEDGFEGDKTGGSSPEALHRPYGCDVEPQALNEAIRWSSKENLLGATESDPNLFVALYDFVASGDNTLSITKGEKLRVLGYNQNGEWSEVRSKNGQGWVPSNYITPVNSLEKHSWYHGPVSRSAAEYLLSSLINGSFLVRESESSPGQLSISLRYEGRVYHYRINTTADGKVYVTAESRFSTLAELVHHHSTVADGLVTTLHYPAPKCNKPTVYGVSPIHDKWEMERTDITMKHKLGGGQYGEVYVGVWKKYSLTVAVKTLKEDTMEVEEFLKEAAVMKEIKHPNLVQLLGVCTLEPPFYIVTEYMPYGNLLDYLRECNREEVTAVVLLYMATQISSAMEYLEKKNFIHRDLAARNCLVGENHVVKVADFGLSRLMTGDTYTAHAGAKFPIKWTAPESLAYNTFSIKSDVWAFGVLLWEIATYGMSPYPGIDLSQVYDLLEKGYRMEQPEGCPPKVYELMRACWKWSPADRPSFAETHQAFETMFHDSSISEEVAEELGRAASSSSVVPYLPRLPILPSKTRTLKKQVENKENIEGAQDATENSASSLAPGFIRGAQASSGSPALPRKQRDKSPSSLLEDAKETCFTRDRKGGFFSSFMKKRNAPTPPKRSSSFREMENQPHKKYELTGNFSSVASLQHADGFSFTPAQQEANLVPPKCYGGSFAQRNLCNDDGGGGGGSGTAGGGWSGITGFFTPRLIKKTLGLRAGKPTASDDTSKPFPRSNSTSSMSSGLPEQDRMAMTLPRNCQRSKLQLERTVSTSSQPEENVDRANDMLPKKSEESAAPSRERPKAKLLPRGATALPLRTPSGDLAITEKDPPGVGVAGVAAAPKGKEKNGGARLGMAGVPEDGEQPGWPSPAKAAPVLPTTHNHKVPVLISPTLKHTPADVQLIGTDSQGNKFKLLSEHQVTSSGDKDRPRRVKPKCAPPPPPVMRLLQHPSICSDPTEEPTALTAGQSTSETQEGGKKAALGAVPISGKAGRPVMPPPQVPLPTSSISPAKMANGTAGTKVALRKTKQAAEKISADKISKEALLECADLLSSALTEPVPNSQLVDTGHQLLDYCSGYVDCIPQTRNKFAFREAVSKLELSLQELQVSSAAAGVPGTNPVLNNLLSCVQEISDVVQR
Chain of HCK (P08631 whole entry): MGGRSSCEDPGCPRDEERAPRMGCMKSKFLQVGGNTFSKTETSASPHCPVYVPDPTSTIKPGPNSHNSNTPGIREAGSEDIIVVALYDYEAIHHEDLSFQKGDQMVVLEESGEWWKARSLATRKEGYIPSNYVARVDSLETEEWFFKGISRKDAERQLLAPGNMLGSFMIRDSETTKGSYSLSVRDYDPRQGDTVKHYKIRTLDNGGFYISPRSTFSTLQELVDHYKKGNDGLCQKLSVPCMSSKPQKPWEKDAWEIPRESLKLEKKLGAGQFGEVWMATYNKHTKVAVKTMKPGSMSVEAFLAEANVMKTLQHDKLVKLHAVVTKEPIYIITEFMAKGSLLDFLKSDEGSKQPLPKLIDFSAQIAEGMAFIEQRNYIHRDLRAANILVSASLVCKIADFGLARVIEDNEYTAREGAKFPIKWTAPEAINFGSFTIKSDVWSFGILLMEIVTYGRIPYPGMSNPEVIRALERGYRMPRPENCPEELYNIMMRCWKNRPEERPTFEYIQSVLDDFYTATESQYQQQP
Chain of BRK (Q13882 whole entry): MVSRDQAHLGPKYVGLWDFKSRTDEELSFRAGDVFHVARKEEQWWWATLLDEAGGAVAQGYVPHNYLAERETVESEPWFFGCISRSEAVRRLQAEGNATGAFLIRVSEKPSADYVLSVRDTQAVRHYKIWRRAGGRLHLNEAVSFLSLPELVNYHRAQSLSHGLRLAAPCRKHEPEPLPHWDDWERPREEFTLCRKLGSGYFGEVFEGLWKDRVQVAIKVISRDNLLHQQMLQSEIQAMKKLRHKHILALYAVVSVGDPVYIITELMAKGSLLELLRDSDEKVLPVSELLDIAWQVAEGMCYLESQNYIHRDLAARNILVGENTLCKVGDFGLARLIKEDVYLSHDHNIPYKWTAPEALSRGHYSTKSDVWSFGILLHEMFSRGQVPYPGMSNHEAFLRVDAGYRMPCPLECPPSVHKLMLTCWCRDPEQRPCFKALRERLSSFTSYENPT
Chain of NIM1 (Q8IY84 whole entry): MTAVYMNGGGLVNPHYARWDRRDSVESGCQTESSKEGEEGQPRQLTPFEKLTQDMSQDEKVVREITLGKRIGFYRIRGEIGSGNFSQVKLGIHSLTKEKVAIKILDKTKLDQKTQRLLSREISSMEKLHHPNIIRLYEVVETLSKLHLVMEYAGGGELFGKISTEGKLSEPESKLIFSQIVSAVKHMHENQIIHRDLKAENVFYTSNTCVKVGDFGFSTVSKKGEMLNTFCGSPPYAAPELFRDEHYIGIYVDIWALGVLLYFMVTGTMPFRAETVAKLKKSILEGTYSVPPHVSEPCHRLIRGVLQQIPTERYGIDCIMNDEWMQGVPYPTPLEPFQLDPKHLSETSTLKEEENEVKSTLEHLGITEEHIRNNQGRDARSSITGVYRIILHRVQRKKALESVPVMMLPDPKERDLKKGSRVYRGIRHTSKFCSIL
Chain of CDK1/cyclin A (P20248 whole entry): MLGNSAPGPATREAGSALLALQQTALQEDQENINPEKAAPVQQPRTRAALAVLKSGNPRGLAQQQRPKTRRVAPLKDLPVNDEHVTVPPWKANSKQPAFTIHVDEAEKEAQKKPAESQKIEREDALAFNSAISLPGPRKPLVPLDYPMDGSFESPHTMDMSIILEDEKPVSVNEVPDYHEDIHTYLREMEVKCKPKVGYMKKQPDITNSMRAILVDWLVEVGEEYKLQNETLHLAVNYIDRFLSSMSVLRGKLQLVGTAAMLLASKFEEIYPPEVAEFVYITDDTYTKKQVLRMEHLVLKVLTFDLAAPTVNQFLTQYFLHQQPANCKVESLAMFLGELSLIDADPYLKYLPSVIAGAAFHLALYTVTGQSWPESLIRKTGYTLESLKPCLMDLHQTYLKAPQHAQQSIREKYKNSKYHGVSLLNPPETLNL
Chain of CDK1/cyclin A (P06493 whole entry): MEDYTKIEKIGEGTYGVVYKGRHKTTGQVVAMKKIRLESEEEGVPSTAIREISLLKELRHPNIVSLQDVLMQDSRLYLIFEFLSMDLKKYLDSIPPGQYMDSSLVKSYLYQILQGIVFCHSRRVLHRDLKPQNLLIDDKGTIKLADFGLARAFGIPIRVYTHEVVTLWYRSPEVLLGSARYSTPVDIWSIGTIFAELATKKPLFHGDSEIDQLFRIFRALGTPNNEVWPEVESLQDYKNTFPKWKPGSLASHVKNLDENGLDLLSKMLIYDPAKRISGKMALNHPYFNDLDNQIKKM

With `COc1cc(-c2cncc(-c3ccc(N4C[C@@H](C)N(C)[C@@H](C)C4)cc3)c2C)cc(F)c1C(N)=O` [Compound 26c, 2-Fluoro-6-methoxy-4-(4-methyl-5-(4-((3R,5S)-3,4,5-trimethylpiperazin-1-yl)phenyl)pyridin-3-yl)benzamide], the “% enzyme activity” value was found to be 96.59% on ABL2/ARG; 96.82% on CAMK1a; 89.52% on CDK1/cyclin A; 98.01% at ERK5/MAPK7; 95.52% on FRK/PTK5; 101.33% at MEK3. Moreover, the “% enzyme activity” value at MEK5 worked out at 92.97%; at PRKX, 90.55%; on STK32B/YANK2 it was 94.20%. In addition, the remaining activity at 1 µM was found to be 73.9% at BRK; 94.7% at CK1epsilon; 98.9% on ERN2/IRE2; 91.8% at HCK; 98.2% on NIM1; 85.2% at ULK2.
With `COc1cc(-c2cncc(-c3ccc(N4CCN(C)CC4)cc3)c2C)cc(F)c1C(N)=O` [Compound 26a, 2-Fluoro-6-methoxy-4-(4-methyl-5-(4-(4-methylpiperazin-1-yl)phenyl)pyridin-3-yl)benzamide], the “% enzyme activity” value was 95.77% on ABL2/ARG; 92.25% at CAMK1a; 92.50% on CDK1/cyclin A; 92.77% at ERK5/MAPK7; 95.48% on FRK/PTK5; 100.94% on MEK3. In addition, the “% enzyme activity” value at MEK5 amounted to 85.95%; at PRKX it was 99.24%; at STK32B/YANK2 it was 87.20%. The remaining activity at 1 µM at BRK worked out at 58.3%; at CK1epsilon it was 93.8%; at ERN2/IRE2, 97.5%; at HCK, 93.6%; on NIM1 it was 96.6%; at ULK2 it was 73.7%.

For the origin of these results see publication PMC8213057, “Targeting ALK2: An Open Science Approach to Developing Therapeutics for the Treatment of Diffuse Intrinsic Pontine Glioma” (Journal of Medicinal Chemistry, 2020).
